Assay results taken from PMC12051030, “Identification of inhibitors of the Salmonella FraB deglycase, a drug target” (FEBS Open Bio, 2025).
“And” between values parts separate entries of the source, which are not always exact repeats. Equal entries are not always repeated. Where two headings read alike, the source gives them in different places.

Biological target: His6‐FraB (Salmonella FraB deglycase) (Salmonella enterica subsp. enterica serovar Typhimurium, UniProt Q8ZLD0)
Assay: FraB-G6PD coupled assay, IC50 determination
Format: biochemical
Protocol: The substrate for FraB, 6‐P‐F‐Asp, was synthesized as previously described. FraB activity was monitored as described previously, with the following changes. The final reaction (30 μL) consisted of 25 mM HEPES pH 8 (at 20 °C), 5 mM MgCl2, 0.1 mM ethylene glycol tetraacetic acid (EGTA), 0.5 mM NAD^+, 1 mU G6PD from Leuconostoc mesenteroides (#LS003981; Worthington Biochemicals, Lakewood, NJ, USA), 100 nM His6‐FraB, and 0–3 mM 6‐P‐F‐Asp. The reaction mixture without substrate (29 μL) was added to one well of a 384‐well polystyrene white μClear® microplate (#781095; Greiner Bio‐One, Monroe, NC, USA) and incubated at 37 °C for 2 min, prior to the addition of 1 μL substrate to initiate the reaction. NADH generation was monitored using either absorbance (340 nm) or fluorescence (350 nm excitation, 450 nm emission) and with either an INFINITE M1000 PRO (Tecan, Mannedorf, Switzerland) or Synergy H1 (Biotek, Winooski, VT, USA) plate reader. Absorbance/fluorescence was plotted against time and slopes were obtained by linear regression analyses. These slopes were converted into initial velocities by dividing them by either the absorbance extinction coefficient (ε340 = 6,220 M ^−1·cm^−1) or the molar fluorescence determined based on standard curves obtained in different plate readers (23,646 RFUs·μM ^−1, Tecan; 285,108 RFUs·μM ^−1, Biotek; Fig. S2). These initial velocities (v o) in turn were plotted against [6‐P‐F‐Asp] to obtain Michaelis–Menten curves that were fit to the formula v o = (V max × [S])/(K m + [S]) by Kaleidagraph (Version 4.5.3; Synergy Software, Reading, PA, USA). The activity of recombinant FraB (Fig. S3) was similar to that as reported previously.
For determining the IC50 value of each compound, 26 μL of master mix was added to two rows (48 wells) of a 384‐well Greiner plate followed by 3 μL of inhibitor to four wells per concentration (12 concentrations total) using a single‐channel pipette. After mixing with a 12‐channel pipette, the plate was incubated at 20 °C for 20 min. To initiate the reaction, a 12‐channel pipette was used to add and mix 1 μL of 7.5 mM 6‐P‐F‐Asp to all 48 wells. The final reaction (30 μL) consisted of 25 mM HEPES pH 8.0 at 20 °C, 5 mM MgCl2, 0.1 mM EGTA, 0.5 mM NAD^+, 1 mU G6PD, 100 nM His6‐FraB, 0.25 mM 6‐P‐F‐Asp, and varying concentrations of inhibitor (10% v/v DMSO). NADH fluorescence was monitored every 10 s for 10 min total on a SPARK® multi‐mode multiplate reader (Tecan), as described above, and plotted against time. Slopes of the linear range of each curve were converted to initial velocities, as described above, that were then plotted against (inhibitor). Kaleidagraph was used to fit a sigmoidal curve to each plot using the following formula in order to determine the [IC50]: % inhibition = 100/1 + (IC50/[I]), where I is [inhibitor] [48].

[1] = 0.25 mM 6‐P‐F‐Asp, mean and standard error from two measurements, read-out: IC50
[2] = Trial 1, 0.25 mM 6-P-F-Asp, unit in Fig. S10, read-out: IC50 (curve fit of IC50 plots, Fig. S10)
[3] = Trial 2, 0.25 mM 6-P-F-Asp, unit in Fig. S10, read-out: IC50 (curve fit of IC50 plots, Fig. S10)

Chain of His6‐FraB (Salmonella FraB deglycase) (Q8ZLD0 entry or part of it): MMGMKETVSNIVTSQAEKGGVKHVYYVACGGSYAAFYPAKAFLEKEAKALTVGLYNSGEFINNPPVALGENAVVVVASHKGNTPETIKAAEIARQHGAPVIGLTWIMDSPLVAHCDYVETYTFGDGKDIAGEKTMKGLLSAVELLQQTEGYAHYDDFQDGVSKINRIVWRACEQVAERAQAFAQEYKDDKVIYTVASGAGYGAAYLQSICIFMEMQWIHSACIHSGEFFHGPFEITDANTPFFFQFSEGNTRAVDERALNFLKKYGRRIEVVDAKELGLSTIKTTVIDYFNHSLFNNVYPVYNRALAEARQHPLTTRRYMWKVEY

Row | SMILES | IC50 (IC50 (curve fit of IC50 plots, Fig. S10), Trial 1, 0.25 mM 6-P-F-Asp, unit in Fig. S10) [µM] | IC50 (IC50 (curve fit of IC50 plots, Fig. S10), Trial 2, 0.25 mM 6-P-F-Asp, unit in Fig. S10) [µM] | IC50 (IC50, 0.25 mM 6‐P‐F‐Asp, mean and standard error from two measurements) [µM] | IC50 [1] [µM] | IC50 [2] | IC50 [3]
1 | Fc1ccc(-c2nn3c(-c4ccccn4)nnc3s2)cc1 [3469:N17, 6‐(4‐fluorophenyl)‐3‐pyridin‐2‐yl‐[1,2,4]triazolo[3,4‐b][1,3,4]thiadiazole] | 113 | 86.7 | 100 ± 13 | – | – | –
2 | c1ccc(-c2nnc3sc(C4COc5ccccc5O4)nn23)nc1 (stereo not drawn) [3469:F02, 6‐(2,3‐dihydro‐1,4‐benzodioxin‐3‐yl)‐3‐pyridin‐2‐yl‐[1,2,4]triazolo[3,4‐b][1,3,4]thiadiazole] | – | – | – | 42 ± 2.6 | 44.5 µM and 44.4 µM | 39.3 µM
3 | CC(C)Cc1cc(-c2nn3c(-c4ccccc4Cl)nnc3s2)n[nH]1 [3470:A09, 3‐(2‐chlorophenyl)‐6‐[5‐(2‐methylpropyl)‐1H‐pyrazol‐3‐yl]‐[1,2,4]triazolo[3,4‐b][1,3,4]thiadiazole] | – | – | – | 15.4 ± 0.4 | 15.8 µM | 15 µM
4 | O=c1[nH][nH]c(=S)n1Cc1ccccc1 [1533:K12, 4‐benzyl‐5‐sulfanylidene‐1,2,4‐triazolidin‐3‐one] | – | – | – | 27.6 ± 3.9 | 31.5 µM | 23.7 µM
5 | O=c1sn(-c2ccccc2C(F)(F)F)c(=O)n1CC1CC1 [1524:G12, 4‐(cyclopropylmethyl)‐2‐[2‐(trifluoromethyl)phenyl]‐1,2,4‐thiadiazolidine‐3,5‐dione] | – | – | – | 2.8 ± 0.4 | 3.24 µM and 3.2 µM | 2.39 µM and 2.4 µM
6 | Cc1cccc(Cl)c1-n1sc(=O)n(CC2CC2)c1=O [1524:E12, 2‐(2‐chloro‐6‐methylphenyl)‐4‐(cyclopropylmethyl)‐1,2,4‐thiadiazolidine‐3,5‐dione] | – | – | – | 4.3 | 4.28 µM and 4.3 µM | 4.29 µM and 4.3 µM
